Laboratory results published in paper PMC9289666, “Highly Parallelized, Multicolor Optogenetic Recordings of Cellular Activity for Therapeutic Discovery Applications in Ion Channels and Disease-Associated Excitable Cells” (Frontiers in Molecular Neuroscience, 2022).
Read-outs that look alike come from different tables or passages of the source.

Legend:
human Nav.1.7 = biological target: T1, human Nav.1.7 (Homo sapiens, UniProt Q15858); assay: Nav1.7 spiking HEK assay on Swarm; format: cell-based
T1 construct: expressed in transfected cells
T1 sequence (Q15858 whole entry): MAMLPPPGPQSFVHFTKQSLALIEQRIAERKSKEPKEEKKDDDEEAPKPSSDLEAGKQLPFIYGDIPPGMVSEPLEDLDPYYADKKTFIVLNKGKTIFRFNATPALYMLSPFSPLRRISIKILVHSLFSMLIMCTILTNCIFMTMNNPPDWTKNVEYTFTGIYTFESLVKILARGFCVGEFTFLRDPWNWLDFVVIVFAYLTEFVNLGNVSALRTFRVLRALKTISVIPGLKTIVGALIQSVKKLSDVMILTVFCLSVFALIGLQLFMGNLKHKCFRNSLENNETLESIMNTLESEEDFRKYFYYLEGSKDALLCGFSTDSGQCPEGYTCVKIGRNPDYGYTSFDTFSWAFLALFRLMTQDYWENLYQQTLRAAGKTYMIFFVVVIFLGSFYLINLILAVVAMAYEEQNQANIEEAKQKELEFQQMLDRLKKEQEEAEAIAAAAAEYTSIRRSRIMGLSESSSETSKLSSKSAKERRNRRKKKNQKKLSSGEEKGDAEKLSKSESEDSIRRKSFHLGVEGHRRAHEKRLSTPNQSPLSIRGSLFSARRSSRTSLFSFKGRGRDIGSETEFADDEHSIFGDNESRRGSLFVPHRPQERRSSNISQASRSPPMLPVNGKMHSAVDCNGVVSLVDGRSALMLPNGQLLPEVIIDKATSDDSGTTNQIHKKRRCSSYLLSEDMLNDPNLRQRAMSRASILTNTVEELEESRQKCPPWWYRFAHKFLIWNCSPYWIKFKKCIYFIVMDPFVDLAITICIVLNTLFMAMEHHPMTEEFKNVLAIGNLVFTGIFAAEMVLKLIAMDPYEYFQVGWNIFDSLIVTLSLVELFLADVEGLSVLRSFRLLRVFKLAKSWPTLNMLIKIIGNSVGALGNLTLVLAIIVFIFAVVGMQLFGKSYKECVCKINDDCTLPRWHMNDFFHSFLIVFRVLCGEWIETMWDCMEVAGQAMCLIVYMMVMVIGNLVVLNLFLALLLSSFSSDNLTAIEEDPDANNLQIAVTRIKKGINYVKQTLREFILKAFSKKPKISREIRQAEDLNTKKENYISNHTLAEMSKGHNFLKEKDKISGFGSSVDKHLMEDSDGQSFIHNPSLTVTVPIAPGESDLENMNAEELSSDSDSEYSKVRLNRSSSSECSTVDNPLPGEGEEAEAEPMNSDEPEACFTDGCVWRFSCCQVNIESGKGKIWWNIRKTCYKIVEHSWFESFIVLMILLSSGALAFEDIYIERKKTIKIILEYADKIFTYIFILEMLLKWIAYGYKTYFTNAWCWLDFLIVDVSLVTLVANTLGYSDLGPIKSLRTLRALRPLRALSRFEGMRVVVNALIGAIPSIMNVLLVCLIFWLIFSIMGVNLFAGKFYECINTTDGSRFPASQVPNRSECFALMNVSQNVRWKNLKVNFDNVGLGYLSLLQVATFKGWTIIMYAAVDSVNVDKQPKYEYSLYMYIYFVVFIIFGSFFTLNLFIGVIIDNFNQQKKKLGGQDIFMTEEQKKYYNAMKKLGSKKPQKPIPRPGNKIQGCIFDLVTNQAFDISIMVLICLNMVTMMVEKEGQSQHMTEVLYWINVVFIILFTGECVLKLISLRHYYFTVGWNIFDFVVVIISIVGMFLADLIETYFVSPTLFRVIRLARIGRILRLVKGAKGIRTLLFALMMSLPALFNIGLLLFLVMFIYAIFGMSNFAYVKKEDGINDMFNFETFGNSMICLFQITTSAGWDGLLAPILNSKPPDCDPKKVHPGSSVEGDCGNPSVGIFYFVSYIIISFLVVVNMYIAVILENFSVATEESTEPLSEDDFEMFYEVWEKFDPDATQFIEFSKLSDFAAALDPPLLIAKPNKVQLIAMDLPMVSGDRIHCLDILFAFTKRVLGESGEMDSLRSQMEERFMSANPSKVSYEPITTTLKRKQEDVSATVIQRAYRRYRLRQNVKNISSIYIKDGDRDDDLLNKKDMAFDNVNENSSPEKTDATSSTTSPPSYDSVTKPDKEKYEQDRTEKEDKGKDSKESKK

Nav1.5 = conditions: cited from earlier work
[1] = normalized mean spike amplitude score, Prestwick library compounds
[2] = read-out: Nav1.5 Ionworks (IC50), automated patch clamp, literature reported, ref Harmer et al., 2011
[3] = compounds at 1 μM, cutoff 0.5 mean spike amplitude

Row | Nav1.7 Swarm (score at 3 µM) (human Nav.1.7; [1]) | SMILES | IC50 (Nav1.5; [2]) [µM] | other results
1 | 0.01 | COc1ccc(CCN2CCC(Nc3nc4ccccc4n3Cc3ccc(F)cc3)CC2)cc1 [Astemizole] | 2.3 | 
2 | 0.96 | Cc1cccc(C)c1NC(=O)C1CCCCN1C (stereo not drawn) [Mepivacaine] | 81.4 | 
3 | 0.72 | O=C(NCC1CCCCN1)c1cc(OCC(F)(F)F)ccc1OCC(F)(F)F (stereo not drawn) [Flecainide] | 5.8 | 
4 | 0.97 | COC(=O)C1=C(C)NC(C)=C(C(=O)OC)C1c1ccccc1[N+](=O)[O-] [Nifedipine] |  | 
5 |  | CCN(CC)CCCC(C)Nc1ccnc2cc(Cl)ccc12 (stereo not drawn) [Chloroquine] |  | Nav1.7 Swarm (score at 3 µM) (human Nav.1.7): 0.98; IC50 (Nav1.5): 36.5 µM
6 | 0.19 | CNCCC=C1c2ccccc2CCc2ccccc21 [Nortriptyline] | 2 | Hit identification in Prestwick Chemical Library pilot screen (human Nav.1.7; [3]): hits
7 | 0.37 | CC(CN(C)C)CN1c2ccccc2CCc2ccccc21 (stereo not drawn) [Trimipramine] | 2.7 | Hit identification in Prestwick Chemical Library pilot screen (human Nav.1.7; [3]): hits
8 | 0.25 | CN1CCN(CCCN2c3ccccc3Sc3ccc(C(F)(F)F)cc32)CC1 [Trifluoperazine] | 7.4 | 
9 | 0.99 | CCc1nc(N)nc(N)c1-c1ccc(Cl)cc1 [Pyrimethamine] | 24.6 | 
10 | 0.88 | CC(Oc1c(Cl)cccc1Cl)C1=NCCN1 (stereo not drawn) [Lofexidine] | 27.2 | 
11 |  | CN(C)CCCN1c2ccccc2CCc2ccc(Cl)cc21 [Clomipramine] | 2.6 | Hit identification in Prestwick Chemical Library pilot screen (human Nav.1.7): hits; Nav1.7 Swarm (score at 3 µM) (human Nav.1.7): 0.20
12 | 0.27 | CCCCN1CCCCC1C(=O)Nc1c(C)cccc1C (stereo not drawn) [Bupivacaine] | 4.3 | 
13 | 0.98 | CC12CC3CC(C)(C1)CC(N)(C3)C2 [Memantine] | 92.6 | 
14 | 0.63 | CNCCCC1c2ccccc2C=Cc2ccccc21 [Protriptyline] | 3.1 | 
15 | 0.90 | C=C1C[C@@H]2[C@H](CC[C@]3(C)C(=O)CC[C@@H]23)[C@@]2(C)C=CC(=O)C=C12 [Exemestane] | 71.3 | 
16 | 0.56 | OCCOCCN1CCN(C(c2ccccc2)c2ccc(Cl)cc2)CC1 (stereo not drawn) [Hydroxyzine] | 32.8 | 
17 | 0.24 | COC(=O)C1=C(C#N)NC(C)=C(C(=O)OC(C)C)C1c1cccc([N+](=O)[O-])c1 (stereo not drawn) [Nilvadipine] | 2.3 | 
18 |  | CN(C)CCC=C1c2ccccc2COc2ccccc21 [doxepin] |  | Hit identification in Prestwick Chemical Library pilot screen (human Nav.1.7; [3]): hits
19 | 0.59 | C1CCC(C(CC2CCCCN2)C2CCCCC2)CC1 (stereo not drawn) [Perhexiline] | 3.4 | 
20 |  | CCc1nn(CCCN2CCN(c3cccc(Cl)c3)CC2)c(=O)n1CCOc1ccccc1 [nefazodone] |  | Hit identification in Prestwick Chemical Library pilot screen (human Nav.1.7; [3]): hits
21 | 0.92 | CN(C)CCCC1(c2ccc(F)cc2)OCc2cc(C#N)ccc21 (stereo not drawn) [Citalopram] | 14.7 | 
22 | 0.16 | Fc1ccc(C(c2ccc(F)cc2)N2CCN(C/C=C/c3ccccc3)CC2)cc1 [Flunarizine] | 2.6 | 
23 | 1.06 | COc1c(N2C[C@@H]3CCCN[C@@H]3C2)c(F)cc2c(=O)c(C(=O)O)cn(C3CC3)c12 [Moxifloxacin] |  | 

Row | Nav1.7 Swarm (score at 3 µM) (human Nav.1.7; [1]) | SMILES | IC50 (Nav1.5; [2]) [µM] | other results
24 | 1.00 | CCN(CC)CCNC(=O)c1ccc(N)cc1 [Procainamide] |  | 
25 | 0.40 | CN1CCCCC1CCN1c2ccccc2Sc2ccc([S+](C)[O-])cc21 (stereo not drawn) [Mesoridazine] | 7.2 | 
26 | 0.92 | CCN(CC)CCNC(=O)c1cc(Br)c(N)cc1OC [Bromopride] | 41.4 | 
27 | 0.96 | CCN(CC)CCCC(C)Nc1c2ccc(Cl)cc2nc2ccc(OC)cc12 (stereo not drawn) [Quinacrine] | 20.2 | 
28 |  | CC(C)COCC(CN(Cc1ccccc1)c1ccccc1)N1CCCC1 (stereo not drawn) [Bepridil] |  | IC50 (Nav1.5): 1.9 µM
29 |  | CCN(CC)CC(=O)Nc1c(C)cccc1C [Lidocaine] |  | Nav1.7 Swarm (score at 3 µM) (human Nav.1.7): 0.91; IC50 (human Nav.1.7; 8 mM bath [K+], mean spike amplitude across all test pulses): 15 µM
30 | 0.97 | CC#C[C@]1(O)CC[C@H]2[C@@H]3CCC4=CC(=O)CCC4=C3[C@@H](c3ccc(N(C)C)cc3)C[C@@]21C [Mifepristone] | 25.8 | 
31 | 0.62 | CCOC(=O)N1CCC(=C2c3ccc(Cl)cc3CCc3cccnc32)CC1 [Loratadine] |  | 
32 | 0.80 | Nc1c(Br)cc(Br)cc1CN[C@H]1CC[C@H](O)CC1 [Ambroxol] | 15.2 | 
33 | 0.07 | COC(=O)C1=C(C)NC(C)=C(C(=O)OCCN(C)Cc2ccccc2)C1c1cccc([N+](=O)[O-])c1 (stereo not drawn) [Nicardipine] | 4.3 | 
34 | 0.14 | Nc1nc2ccc(OC(F)(F)F)cc2s1 [Riluzole] |  | 
35 | 0.04 | CSc1ccc2c(c1)N(CCC1CCCCN1C)c1ccccc1S2 (stereo not drawn) [Thioridazine] | 3.5 | 
36 | 0.39 | CC(C)(C)c1ccc(C(O)CCCN2CCC(C(O)(c3ccccc3)c3ccccc3)CC2)cc1 (stereo not drawn) [Terfenadine] |  | 
37 |  | CCCCc1oc2ccccc2c1C(=O)c1cc(I)c(OCCN(CC)CC)c(I)c1 [Amiodarone] |  | Nav1.7 Swarm (score at 3 µM) (human Nav.1.7): 0.52
38 | 0.92 | OCCN(CCO)c1nc(N2CCCCC2)c2nc(N(CCO)CCO)nc(N3CCCCC3)c2n1 [Dipyridamole] | 19.3 | 
39 | 1.07 | O=C1Cc2cc(CCN3CCN(c4nsc5ccccc45)CC3)c(Cl)cc2N1 [Ziprasidone] | 170 | 
40 | 0.53 | O=c1[nH]c2ccccc2n1CCCN1CCC(n2c(=O)[nH]c3cc(Cl)ccc32)CC1 [Domperidone] | 5.6 | 
41 | 1.07 | CCN(CC)CCOC(=O)c1ccc(N)cc1 [Procaine] | 84.6 | 
42 | -0.09 | O=C(CCCN1CCC(O)(c2ccc(Cl)cc2)CC1)c1ccc(F)cc1 [Haloperidol] | 2.3 | 
43 |  | CNCCC(Oc1ccc(C(F)(F)F)cc1)c1ccccc1 (stereo not drawn) [Fluoxetine] | 4.9 | Nav1.7 Swarm (score at 3 µM) (human Nav.1.7): 0.64
44 | 0.94 | CC(C)N(CCC(C(N)=O)(c1ccccc1)c1ccccn1)C(C)C (stereo not drawn) [Disopyramide] | 302 | 
45 | 1.07 | O=C(N[C@H](CO)[C@H](O)c1ccc([N+](=O)[O-])cc1)C(Cl)Cl [Chloramphenicol] | 215 | 
46 | 0.89 | O=c1[nH]c2ccccc2n1C1CCN(CCCC(c2ccc(F)cc2)c2ccc(F)cc2)CC1 [Pimozide] | 1.7 | 

Row | Nav1.7 Swarm (score at 3 µM) (human Nav.1.7; [1]) | SMILES | IC50 (Nav1.5; [2]) [µM] | other results
47 | 0.31 | OCCN1CCN(CCCN2c3ccccc3Sc3ccc(C(F)(F)F)cc32)CC1 [Fluphenazine] | 8 | 
48 | 0.97 | O=C1CC2(CCCC2)CC(=O)N1CCCCN1CCN(c2ncccn2)CC1 [Buspirone] | 125 | 
49 |  | CN(C)C(=O)C(CCN1CCC(O)(c2ccc(Cl)cc2)CC1)(c1ccccc1)c1ccccc1 [Loperamide] |  | Nav1.7 Swarm (score at 3 µM) (human Nav.1.7): 0.04; IC50 (Nav1.5): 2.9 µM
50 | 0.32 | CN(C)CCCN1c2ccccc2Sc2ccc(Cl)cc21 [Chlorpromazine] | 2.8 | 
51 | 0.74 | CN1CCN(C2=Nc3cc(Cl)ccc3Nc3ccccc32)CC1 [Clozapine] | 11.6 | 
52 | 0.20 | CCCNCC(O)COc1ccccc1C(=O)CCc1ccccc1 (stereo not drawn) [Propafenone] |  | 
53 |  | C=C[C@H]1C[N@@]2CC[C@H]1C[C@@H]2[C@@H](O)c1ccnc2ccc(OC)cc12 [Quinidine] | 9.7 | 
54 | 0.38 | CNCCCN1c2ccccc2CCc2ccccc21 [Desipramine] | 2.4 | Hit identification in Prestwick Chemical Library pilot screen (human Nav.1.7; [3]): hits
55 | 0.22 | OCc1cc(C(O)CNCCCCCCOCCCCc2ccccc2)ccc1O (stereo not drawn) [Salmeterol] | 7.2 | 
56 | 0.96 | CC(=O)N1CCN(c2ccc(OCC3COC(Cn4ccnc4)(c4ccc(Cl)cc4Cl)O3)cc2)CC1 (stereo not drawn) [Ketoconazole] | 44.9 | 
57 | 0.15 | CCOC(=O)Nc1ccc2c(c1)N(C(=O)CCN1CCOCC1)c1ccccc1S2 [Moricizine] | 1.2 | 
58 |  | CN[C@H]1CC[C@@H](c2ccc(Cl)c(Cl)c2)c2ccccc21 [Sertraline] |  | Nav1.7 Swarm (score at 3 µM) (human Nav.1.7): 0.87
59 | 0.95 | CCCNC(C)C(=O)Nc1ccccc1C (stereo not drawn) [Prilocaine] | 72.6 | 
60 | 1.01 | COC(=O)[C@H]1[C@H]2C[C@@H]3c4[nH]c5cc(OC)ccc5c4CCN3C[C@H]2C[C@@H](OC(=O)c2cc(OC)c(OC)c(OC)c2)[C@@H]1OC [Reserpine] | 10.5 | 
61 | 0.44 | CN1CCC(=C2c3ccccc3C=Cc3ccccc32)CC1 [Cyproheptadine] | 6.1 | 
62 | 0.82 | COc1ccc([C@@H]2Sc3ccccc3N(CCN(C)C)C(=O)[C@@H]2OC(C)=O)cc1 [Diltiazem] | 14.2 | 
63 |  | Clc1ccc2c(c1)C(N1CCNCC1)=Nc1ccccc1O2 [Amoxapine] | 5.8 | 
64 | 0.95 | CCN(CC)Cc1cc(Nc2ccnc3cc(Cl)ccc23)ccc1O [Amodiaquin] | 9.7 | 
65 |  | Cc1nc2n(c(=O)c1CCN1CCC(c3noc4cc(F)ccc34)CC1)CCCC2 [Risperidone] |  | Nav1.7 Swarm (score at 3 µM) (human Nav.1.7): 0.89
66 | 0.35 | CN(C)CCCN1c2ccccc2CCc2ccccc21 [Imipramine] |  | Hit identification in Prestwick Chemical Library pilot screen (human Nav.1.7; [3]): hits
67 |  | Cc1cc2c(s1)Nc1ccccc1N=C2N1CCN(C)CC1 [Olanzapine] |  | Nav1.7 Swarm (score at 3 µM) (human Nav.1.7): 1.09

Row | SMILES | Nav1.7 Swarm (score at 3 µM) (human Nav.1.7; [1]) | IC50 (Nav1.5; [2]) [µM] | other results
68 | COc1ccc(C(CN(C)C)C2(O)CCCCC2)cc1 (stereo not drawn) [Venlafaxine] | 0.95 | 90.1 | 
69 | CC(C)NC[C@@H](O)COc1cccc2ccccc12 [(R)-Propranolol] | 0.63 |  | IC50 (Nav1.5): 7.5 µM
